Measured values as given in patent US10206907B2, “Compounds useful for the treatment of degenerative and inflammatory diseases” (GALAPAGOS NV, priority 2008, dated 2019).

Key:
[1] = target: Recombinant human JAK1 catalytic domain (Homo sapiens (Human), UniProt P23458); test: JAK1 inhibition assay; assay type: biochemical; settings: semi-quantitative score
How it was run: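 Radiometric assay read by scintillation counting after phosphoric-acid washes. Percent inhibition calculated from cpm relative to vehicle and 10 μM staurosporine control. IC50 derived from compound dose-dilution series.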

[2] = tested on: JAK-STAT signalling in HeLa cells; test: JAK-STAT signalling assay (OSM-triggered pSTAT1(2)-luciferase reporter in HeLa cells); assay type: cell-based; settings: Homo sapiens; HeLa cells, OSM-triggered pSTAT1(2)-luciferase reporter; read-out: STAT signalling EC50
Protocol: HeLa cells were maintained in Dulbecco's Modified Eagle's Medium (DMEM) containing 10% heat inactivated fetal calf serum, 100 U/mL penicillin and 100 μg/mL streptomycin. HeLa cells were used at 70% confluence for transfection. 20,000 cells in 87 μL cell culture medium were transiently transfected with 40 ng pSTAT1(2)-luciferase reporter (Panomics), 8 ng of LacZ reporter as internal control reporter and 52 ng of pBSK using 0.32 μL Jet-PEI (Polyplus) as transfection reagent per well in 96-well plate format. After overnight incubation at 37° C., 10% CO2, transfection medium was removed.
40 μL of cell lysate was used to read β-galactosidase activity by adding 180 μL βGal solution (30 μl ONPG 4 mg/mL+150 μL β-Galactosidase buffer (0.06 M Na2HPO4, 0.04 M NaH2PO4, 1 mM MgCl2)) for 20 min.
Luciferase activity was measured using 40 μL cell lysate plus 40 μl of Steadylite® as described by the manufacturer (Perkin Elmer), on the Envision (Perkin Elmer).
The positive and negative controls were used to calculate z’ and ‘percent inhibition’ (PIN) values.
PIN values were plotted for compounds tested in dose-response and EC50 values were derived.

[3] = target: Recombinant human JAK2 catalytic domain (Homo sapiens (Human), UniProt O60674); test: JAK2 inhibition assay; assay type: biochemical; settings: semi-quantitative score
Protocol: After 90 min at 30° C., reactions were stopped by adding of 25 μL/well of 150 mM phosphoric acid. […] Plates were washed 6 times with 300 μL per well of a 75 mM phosphoric acid solution and the bottom of the plates was sealed. 40 μL/well of Microscint-20 was added, the top of the plates was sealed and readout was performed using the Topcount (Perkin Elmer). Kinase activity was calculated by subtracting counts per minute (cpm) obtained in the presence of a positive control inhibitor (10 μM staurosporine) from cpm obtained in the presence of vehicle. The ability of a test compound to inhibit this activity was determined as: Percentage inhibition=((cpm determined for sample with test compound present−cpm determined for sample with positive control inhibitor) divided by (cpm determined in the presence of vehicle−cpm determined for sample with positive control inhibitor))*100%.
Dose dilution series were prepared for the compounds enabling the testing of dose-response effects in the JAK2 assay and the calculation of the IC50 for each compound.

Sequence of Recombinant human JAK2 catalytic domain (O60674 808-1132): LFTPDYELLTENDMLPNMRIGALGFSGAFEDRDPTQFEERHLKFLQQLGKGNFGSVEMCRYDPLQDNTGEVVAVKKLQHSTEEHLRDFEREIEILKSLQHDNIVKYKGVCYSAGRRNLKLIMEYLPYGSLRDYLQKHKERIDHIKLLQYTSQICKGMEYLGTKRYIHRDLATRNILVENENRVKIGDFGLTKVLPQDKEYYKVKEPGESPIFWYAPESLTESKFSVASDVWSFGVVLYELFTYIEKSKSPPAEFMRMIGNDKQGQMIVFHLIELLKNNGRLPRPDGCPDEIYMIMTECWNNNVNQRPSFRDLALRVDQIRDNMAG
Sequence of Recombinant human JAK1 catalytic domain (P23458 850-1154): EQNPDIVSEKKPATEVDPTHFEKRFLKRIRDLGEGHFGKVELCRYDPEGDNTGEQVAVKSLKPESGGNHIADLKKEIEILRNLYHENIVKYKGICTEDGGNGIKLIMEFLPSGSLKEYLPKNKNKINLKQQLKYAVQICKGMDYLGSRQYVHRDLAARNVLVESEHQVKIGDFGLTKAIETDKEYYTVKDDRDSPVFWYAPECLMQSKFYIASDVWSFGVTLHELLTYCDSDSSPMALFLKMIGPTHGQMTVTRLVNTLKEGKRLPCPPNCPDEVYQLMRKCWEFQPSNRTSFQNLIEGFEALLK

## N#CC1CCN(Cc2ccc(-c3cccc4nc(NC(=O)C5CC5)nn34)cc2)CC1 [Compound 232, Cyclopropanecarboxylic acid {5-[4-(4-cyano-piperidin-1-ylmethyl)-phenyl]-[1,2,4]triazolo[1,5-a]pyridin-2-yl}-amide]
[1]
  IC50: < 100 nM
[2]
  EC50: > 1000 nM
[3]
  IC50: 101 to 500 nM

## CN(C)C1CN(C(=O)c2ccc(-c3cccc4nc(NC(=O)C5CC5)nn34)cc2)C1 [Compound 327, Cyclopropanecarboxylic acid {5-[4-(3-dimethylamino-azetidine-1-carbonyl)-phenyl]-[1,2,4]triazolo[1,5-a]pyridin-2-yl}-amide]
[1]
  IC50: 101 to 500 nM
[2]
  EC50: > 1000 nM
[3]
  IC50: > 1000 nM

## COC1CN(C(=O)Cc2ccc(-c3cccc4nc(NC(=O)C5CC5)nn34)cc2)C1 [Compound 321, Cyclopropanecarboxylic acid (5-{4-[2-(3-methoxy-azetidin-1-yl)-2-oxo-ethyl]-phenyl} - [1,2,4]triazolo[1,5-a]pyridin-2 yl)-amide]
[1]
  IC50: < 100 nM
[2]
  EC50: > 1000 nM

## O=C(NCc1ccc(-c2cccc3nc(NC(=O)C4CC4)nn23)cc1)C1CCC1 [Compound 268, Cyclobutanecarboxylic acid 4-[2-(cyclopropanecarbonyl-amino)-[1,2,4]triazolo[1,5-a]pyridin-5-yl]-benzylamide]
[1]
  IC50: < 100 nM
[2]
  EC50: > 1000 nM

## CN(C)CC1CN(C(=O)c2ccc(-c3cccc4nc(NC(=O)C5CC5)nn34)cc2)C1 [Compound 329, Cyclopropanecarboxylic acid {5-[4-(3-dimethylaminomethyl-azetidine-1-carbonyl)-phenyl]-[1,2,4]triazolo[1,5-a]pyridin-2-yl}-amide]
[1]
  IC50: 101 to 500 nM
[2]
  EC50: > 1000 nM
[3]
  IC50: > 1000 nM

## COC1CCN(C(=O)c2ccc(-c3cccc4nc(NC(=O)C5CC5)nn34)cc2)CC1 [Compound 293, Cyclopropanecarboxylic acid {5-[4-(4-methoxy-piperidine-1-carbonyl)-phenyl]-[1,2,4]triazolo[1,5-a]pyridin-2-yl}-amide]
[1]
  IC50: < 100 nM
[2]
  EC50: > 1000 nM
[3]
  IC50: > 1000 nM

## O=C(Nc1nc2cccc(-c3ccc(-c4cccs4)cc3)n2n1)C1CC1 [Compound 20, N-(5-(4-(thiophen-2-yl)phenyl)-[1,2,4]triazolo[1,5-a]pyridin-2-yl)cyclopropanecarboxamide]
[1]
  IC50: 101 to 500 nM
[2]
  EC50: 501 to 1000 nM
[3]
  IC50: 501 to 1000 nM

## O=C(NCc1ccc(-c2cccc3nc(NC(=O)C4CC4)nn23)cc1)C1CC1 [Compound 272, Cyclopropanecarboxylic acid 4-[2-(cyclopropanecarbonyl-amino)-[1,2,4]triazolo[1,5-a]pyridin-5-yl]-benzylamide]
[1]
  IC50: < 100 nM
[2]
  EC50: > 1000 nM
[3]
  IC50: 101 to 500 nM

## Cc1ccc(C(N)=O)cc1NCc1ccc(-c2cccc3nc(NC(=O)C4CC4)nn23)cc1 [Compound 249]
[1]
  IC50: < 100 nM
[2]
  EC50: > 1000 nM

## N#CC1CN(Cc2ccc(-c3cccc4nc(NC(=O)C5CC5)nn34)cc2)C1 [Compound 303, Cyclopropanecarboxylic acid {5-[4-(3-cyano-azetidin-1-ylmethyl)-phenyl]-[1,2,4]triazolo[1,5-a]pyridin-2-yl}-amide]
[1]
  IC50: < 100 nM
[2]
  EC50: 501 to 1000 nM
[3]
  IC50: 101 to 500 nM

## CN1CCN(c2ccc(NCc3ccc(-c4cccc5nc(NC(=O)C6CC6)nn45)cc3)cn2)CC1 [Compound 235, Cyclopropanecarboxylic acid [5-(4-{[6-(4-methyl-piperazin-1-yl)-pyridin-3-ylamino]-methyl}-phenyl)-[1,2,4]triazolo[1,5-a]pyridin-2-yl]-amide]
[1]
  IC50: < 100 nM
[2]
  EC50: > 1000 nM
[3]
  IC50: 101 to 500 nM

## O=C(Nc1nc2cccc(-c3ccc(CN4CCCC(O)C4)cc3)n2n1)C1CC1 (centres unmarked) [Compound 313, Cyclopropanecarboxylic acid {5-[4-(3-hydroxy-piperidin-1-ylmethyl)-phenyl]-[1,2,4]triazolo[1,5-a]pyridin-2-yl}-amide]
[1]
  IC50: < 100 nM
[2]
  EC50: > 1000 nM
[3]
  IC50: 101 to 500 nM

## N#Cc1ccc(-c2ccc(-c3cccc4nc(NC(=O)C5CC5)nn34)cc2)cn1 [Compound 239, Cyclopropanecarboxylic Acid {5-[4-(6-cyano-pyridin-3-yl)-phenyl]-[1,2,4]triazolo[1,5-a]pyridin-2-yl}-amide]
[1]
  IC50: < 100 nM
[2]
  EC50: > 1000 nM
[3]
  IC50: 101 to 500 nM

## N#Cc1ccc(OC2CN(Cc3ccc(-c4cccc5nc(NC(=O)C6CC6)nn45)cc3)C2)cc1 [Compound 278, Cyclopropanecarboxylic acid (5-{4-[3-(4-cyano-phenoxy)-azetidin-1-ylmethyl]-phenyl}-[1,2,4]triazolo[1,5-a]pyridin-2-yl)-amide]
[1]
  IC50: < 100 nM
[2]
  EC50: > 1000 nM
[3]
  IC50: 101 to 500 nM

## N#Cc1ccc(COC2CN(c3ccc(-c4cccc5nc(NC(=O)C6CC6)nn45)cc3)C2)cc1 [Compound 284, Cyclopropanecarboxylic acid (5-{4-[3-(4-cyano-benzyloxy)-azetidin-1-yl]-phenyl}-[1,2,4]triazolo[1,5-a]pyridin-2-yl)-amide]
[1]
  IC50: < 100 nM
[2]
  EC50: > 1000 nM
[3]
  IC50: 501 to 1000 nM

## CC(C)(C)OC(=O)NC1CCN(Cc2ccc(-c3cccc4nc(NC(=O)C5CC5)nn34)cc2)CC1 [Compound 310]
[1]
  IC50: < 100 nM
[2]
  EC50: > 1000 nM
[3]
  IC50: > 1000 nM

## O=C(Nc1nc2cccc(-c3cccc(OCc4ccccc4)c3)n2n1)C1CC1 [Compound 14, N-(5-(3-(benzyloxy)phenyl)-[1,2,4]triazolo[1,5-a]pyridin-2-yl)cyclopropanecarboxamide]
[1]
  IC50: 101 to 500 nM
[2]
  EC50: > 1000 nM
[3]
  IC50: 501 to 1000 nM

## O=C1CN(C(=O)c2ccc(-c3cccc4nc(NC(=O)C5CC5)nn34)cc2)CCN1 [Compound 277, Cyclopropanecarboxylic acid [5-[4-(3-oxo-piperazine-1-carbonyl)-phenyl]-[1,2,4]triazolo[1,5-a]pyridin-2-yl}-amide]
[1]
  IC50: < 100 nM
[2]
  EC50: > 1000 nM
[3]
  IC50: 101 to 500 nM

## CC(=O)N1CCN(C(=O)c2ccc(-c3cccc4nc(NC(=O)C5CC5)nn34)cc2)CC1 [Compound 220, Cyclopropanecarboxylic acid {5-[4-(4-acetyl-piperazine-1-carbonyl)-phenyl]-[1,2,4]triazolo[1,5-a]pyridin-2-yl}-amide]
[1]
  IC50: 101 to 500 nM
[3]
  IC50: 501 to 1000 nM

## CC(=O)NC1CCCN(C(=O)c2ccc(-c3cccc4nc(NC(=O)C5CC5)nn34)cc2)C1 (centres unmarked) [Compound 296, Cyclopropanecarboxylic acid {5-[4-(3-acetylamino-piperidine-1-carbonyl)-phenyl]-[1,2,4]triazolo[1,5-a]pyridin-2-yl}-amide]
[1]
  IC50: 101 to 500 nM
[3]
  IC50: 501 to 1000 nM

## CC1(C)COCCN1Cc1ccc(-c2cccc3nc(NC(=O)C4CC4)nn23)cc1 [Compound 213, Cyclopropanecarboxylic acid {5-[4-(3,3-dimethyl-morpholin-4-ylmethyl)-phenyl]-[1,2,4]triazolo[1,5-a]pyridin-2-yl}-amide]
[1]
  IC50: 101 to 500 nM
[3]
  IC50: 101 to 500 nM

## O=C(Nc1nc2cccc(-c3ccc(CNC(=O)N4CCOCC4)cc3)n2n1)C1CC1 [Compound 309, Morpholine-4-carboxylic acid 4-[2-(cyclopropanecarbonyl-amino)-[1,2,4]triazolo[1,5-a]pyridin-5-yl]-benzylamide]
[1]
  IC50: 101 to 500 nM
[3]
  IC50: 501 to 1000 nM

## O=C(Nc1nc2cccc(-c3ccc(CNc4ccc(N5CCOCC5)nc4)cc3)n2n1)C1CC1 [Compound 237, Cyclopropanecarboxylic acid (5-{4-[(6-morpholin-4-yl-pyridin-3-ylamino)-methyl]-phenyl}-[1,2,4]triazolo[1,5-a]pyridin-2-yl)-amide]
[1]
  IC50: 101 to 500 nM
[3]
  IC50: 501 to 1000 nM

## O=C(Nc1nc2cccc(-c3ccc(CN4CC[C@H](O)C4)cc3)n2n1)C1CC1 [Compound 305, Cyclopropanecarboxylic acid {5-[4-((S)-3-hydroxy-pyrrolidin-1-ylmethyl)-phenyl]-[1,2,4]triazolo[1,5-a]pyridin-2-yl}-amide]
[1]
  IC50: 101 to 500 nM
[3]
  IC50: > 1000 nM

## CN1CCN(c2ccc(NC(=O)c3ccc(-c4cccc5nc(NC(=O)C6CC6)nn45)cc3)cn2)CC1 [Compound 205, 4-[2-(Cyclopropanecarbonyl-amino)-[1,2,4]triazolo[1,5-a]pyridin-5-yl]-N-[6-(4-methyl-piperazin-1-yl)-pyridin-3-yl]-benzamide]
[1]
  IC50: 101 to 500 nM
[3]
  IC50: 501 to 1000 nM
